Where two headings read alike, the source gives them in different places.
Columns and labels:
[1] = PK simulation and model analysis using Phoenix WinNonlin 8.1 (non-compartmental and compartmental); assay type: in vivo; details: CD1, mouse, plasma; for AUC / clearance / Vd: iv, 5 mg/kg
Procedure: PK parameters simulation was performed using the Phoenix WinNonlin 8.1 software (Certara.com). […] Data collected from sampling time 1‐360 minutes after iv injection were then pooled (n = 3) and tested against various compartmental models for a best fit using Phoenix WinNonlin 8.1 software. Parameters included the Akaike's information criterion (AIC), Bayesian information criteria (BIC) and corrected AIC (AICc) calculated using the equation: AICc = AIC +2 × nParm (nParm + 1)/(nObs − nParm − 1). ^21

[2] = test system: O2·‐ production in tissue homogenates; experiment: O2·- production in tissue homogenates by lucigenin-chemiluminescence after iv injection (PD profile); assay type: in vivo, mouse; details: iv 5 mg/kg
Procedure: All studies were performed in accordance with the protocols approved by the Home Office under the Animals (Scientific Procedures) Act 1986, UK. For the PKPD study, male CD1 mice (Charles River Ltd) at 12 weeks of age with a body weight range between 25 and 30 g were used for the study. Mice were fasted 12 hours before bolus iv injection of apocynin at 5 mg/kg body weight (dosing volume 5 mL/kg) via a lateral tail vein. Control mice were injected with vehicle (solvent of apocynin) at each time points. Four mice/per time points were sacrificed at 0, 1, 2.5, 5, 15, 30, 60 minutes and then at 3, 6, 12, and 24 hours after iv injection of apocynin. Blood samples were collected and centrifuged at 2000 g, 4°C for 10 minutes for plasma collection. Urine samples were collected from bladders. Tissues were harvested for further experiments. ROS production was measured using tissue homogenates by three complementary techniques: lucigenin (5 µmol/L)‐chemiluminescence (Molecular Devices); DHE (2 µmol/L) fluorescence on brain tissue sections, and brain tissue lipid peroxidation by malondialdehyde (MDA) assay as described previously. ^5 The specificity of detection of O2·‐ was confirmed by adding tiron (10 mmol/L), a non‐enzymatic O2·‐ scavenger. The enzymatic sources of O2·‐ production were identified using inhibitors targeting nitric oxide synthase (L‐N^G‐Nitro arginine methyl ester, L‐NAME, 100 μmol/L), the mitochondrial complex‐1 enzymes (rotenone, 50 μmol/L), xanthine oxidase (oxypurinol, 250 μmol/L), flavo‐proteins (diphenyleneiodonium, DPI, 20 μmol/L), or superoxide dismutase (SOD) (200 U/mL). The DHE fluorescence was captured using a Nikon fluorescence microscope (Eclipse Ti2‐E). The fluorescence intensity was quantified from at least three random images per section with three sections/per sample.

[3] = test system: ROS production on brain sections; experiment: In situ ROS production by DHE fluorescence on brain sections after iv injection; assay type: in vivo, mouse; details: brain sections harvested at 15 minutes after iv injection
Procedure: ROS production was measured using tissue homogenates by three complementary techniques: lucigenin (5 µmol/L)‐chemiluminescence (Molecular Devices); DHE (2 µmol/L) fluorescence on brain tissue sections, and brain tissue lipid peroxidation by malondialdehyde (MDA) assay as described previously. ^5 The specificity of detection of O2·‐ was confirmed by adding tiron (10 mmol/L), a non‐enzymatic O2·‐ scavenger. The enzymatic sources of O2·‐ production were identified using inhibitors targeting nitric oxide synthase (L‐N^G‐Nitro arginine methyl ester, L‐NAME, 100 μmol/L), the mitochondrial complex‐1 enzymes (rotenone, 50 μmol/L), xanthine oxidase (oxypurinol, 250 μmol/L), flavo‐proteins (diphenyleneiodonium, DPI, 20 μmol/L), or superoxide dismutase (SOD) (200 U/mL). The DHE fluorescence was captured using a Nikon fluorescence microscope (Eclipse Ti2‐E). The fluorescence intensity was quantified from at least three random images per section with three sections/per sample.

[4] = test system: Nox2; experiment: Brain Nox2 expression by immunofluorescence, HFD mouse model; assay type: in vivo; details: HFD brain sections, apocynin 5 mmol/L in drinking water, vs HFD
Procedure: The experiments were performed exactly as described previously. ^23 Midbrain (containing hippocampus and ventral tegmental area regions) cryosections were used for the experiments. Primary antibodies were used at 1:250 dilution. Bovine serum albumin (2%) was used in the place of primary antibodies as a negative control. Biotin‐conjugated secondary antibody was used at 1:1000 dilution. Specific binding of antibodies was detected by streptavidin‐Cy3. Images were captured using a Nikon fluorescence microscope (Eclipse Ti2‐E). Fluorescence intensities were quantified as described above.

[5] = parameters: method as in PMID 23455672; details: cited from earlier work
[6] = parameters: method as in PMID 25140304; details: rats, intraperitoneal injection, urine collected at 20 hours; cited from earlier work

k el ([1]; NCA, iv 5 mg/kg, n = 3, read-out: Kel (elimination rate constant) (converted)): 0.00379 s⁻¹ | half-life ([1]; NCA, iv 5 mg/kg, n = 3, read-out: t 1/2 (terminal half-life, plasma) (converted)): 3 min | AUC ([1]; male, 1-CA (one compartmental analysis), 0-6 h, read-out: AUC0‐∞): 681 ng·h/mL | clearance ([1]; male, 1-CA, 0-6 h, read-out: tvCL1 (typical value of compartmental clearance) (converted)): 92.4 mL/min | Vd ([1]; male, 1-CA, 0-6 h, read-out: tvV1 (typical value of compartmental volume of distribution)): 0.531 L | AUC ([1]; male, 2-CA (two compartmental analysis), 0-6 h, read-out: AUC0‐∞): 711 ng·h/mL | clearance ([1]; male, 2-CA, 0-6 h, read-out: tvCL1 (typical value of compartmental clearance) (converted)): 92.3 mL/min | Vd ([1]; male, 2-CA, 0-6 h, read-out: tvV1 (typical value of compartmental volume of distribution)): 0.531 L | AUC ([1]; male, 3-CA (three compartmental analysis), 0-6 h, read-out: AUC0‐∞): 711 ng·h/mL | clearance ([1]; male, 3-CA, 0-6 h, read-out: tvCL1 (typical value of compartmental clearance) (converted)): 92 mL/min | Vd ([1]; male, 3-CA, 0-6 h, read-out: tvV1 (typical value of compartmental volume of distribution)): 0.531 L | AUC ([1]; male, NCA, iv 5 mg/kg, n = 3, read-out: AUC0‐30min): 643 ng·h/mL | AUC ([1]; male, NCA, iv 5 mg/kg, n = 3, read-out: AUC0‐∞): 644 ng·h/mL | clearance ([1]; male, NCA, iv 5 mg/kg, n = 3, read-out: CL (clearance) (converted)): 129 mL/min/kg | Vd ([1]; male, NCA, iv 5 mg/kg, n = 3, read-out: V d (central volume of distribution)): 0.569 L/kg | clearance ([1]; male, NCA, iv 5 mg/kg, read-out: CL (systemic clearance) (converted)): 129 mL/min/kg | C0 ([1]; male, NCA, 0-30 min, iv 5 mg/kg, n = 3, read-out: C 0 (extrapolated plasma concentration at time 0)): 7360 ng/mL | Cmax ([1]; male, NCA, 0-30 min, iv 5 mg/kg, n = 3, read-out: C max (maximum plasma concentration)): 5490 ng/mL
Compound: COc1cc(C(C)=O)ccc1O [Apocynin, 4‐hydroxy‐3‐methoxyacetophenone]
inhibition at 5 mg/kg ([2]; Mus musculus, 1 min, brain homogenates, starting at 1 minute): 60.4 ± 25.4% | duration of inhibition of brain O2·- production ([2]; brain homogenates): up to 60 minutes | start of inhibition of brain O2·- production ([2]; brain homogenates): 1 min | time at which inhibition of brain O2·- production became significant ([2]; brain homogenates): 2.5 min | time at which inhibition of brain O2·- production disappeared ([2]; brain homogenates): 3 h | duration of inhibition of heart O2·- production ([2]; heart homogenates): ~ 60 minutes | start of inhibition of heart O2·- production ([2]; heart homogenates): 1 min | time at which inhibition of heart O2·- production became significant ([2]; heart homogenates): 2.5 min | time at which inhibition of heart O2·- production disappeared ([2]; heart homogenates): 3 h | duration of inhibition of liver O2·- production ([2]; liver homogenates): ~ 60 minutes | time at which inhibition of liver O2·- production disappeared ([2]; liver homogenates): 3 h | onset of inhibition of liver O2·- production ([2]; liver homogenates, vs time 0 control): ≤ 1 min | effect on DHE fluorescence (in situ ROS production) [3]: inhibited effectively | effect on brain Nox2 expression [4]: significantly reduced | pKa value [5]: 8.17 | apocynin recovered in unchanged form in urine [6]: 80%

Reference: PMC7406636, “In vivo and in silico characterization of apocynin in reducing organ oxidative stress: A pharmacokinetic and pharmacodynamic study” (Pharmacology Research & Perspectives, 2020)
